Results published in patent publication US20120122860A1, “SOLID FORMS OF SULFONAMIDES AND AMINO ACIDS” (Plexxikon, Inc., priority 2009, published 2012).

Legend:
Kit = Kit (Homo sapiens, UniProt P10721); assay: Kinase activity assay, Kit
C-Raf = C-Raf (Homo sapiens, UniProt P04049); assay: Kinase activity assay, C-Raf
B-Raf V600E = B-Raf V600E (Homo sapiens, UniProt P15056, V600E); assay: Kinase activity assay, B-Raf V600E; type: biochemical; conditions: read-out: activity toward kinase B-Raf V600E, IC50
B-Raf V600E, sequence (P15056 whole entry V600E): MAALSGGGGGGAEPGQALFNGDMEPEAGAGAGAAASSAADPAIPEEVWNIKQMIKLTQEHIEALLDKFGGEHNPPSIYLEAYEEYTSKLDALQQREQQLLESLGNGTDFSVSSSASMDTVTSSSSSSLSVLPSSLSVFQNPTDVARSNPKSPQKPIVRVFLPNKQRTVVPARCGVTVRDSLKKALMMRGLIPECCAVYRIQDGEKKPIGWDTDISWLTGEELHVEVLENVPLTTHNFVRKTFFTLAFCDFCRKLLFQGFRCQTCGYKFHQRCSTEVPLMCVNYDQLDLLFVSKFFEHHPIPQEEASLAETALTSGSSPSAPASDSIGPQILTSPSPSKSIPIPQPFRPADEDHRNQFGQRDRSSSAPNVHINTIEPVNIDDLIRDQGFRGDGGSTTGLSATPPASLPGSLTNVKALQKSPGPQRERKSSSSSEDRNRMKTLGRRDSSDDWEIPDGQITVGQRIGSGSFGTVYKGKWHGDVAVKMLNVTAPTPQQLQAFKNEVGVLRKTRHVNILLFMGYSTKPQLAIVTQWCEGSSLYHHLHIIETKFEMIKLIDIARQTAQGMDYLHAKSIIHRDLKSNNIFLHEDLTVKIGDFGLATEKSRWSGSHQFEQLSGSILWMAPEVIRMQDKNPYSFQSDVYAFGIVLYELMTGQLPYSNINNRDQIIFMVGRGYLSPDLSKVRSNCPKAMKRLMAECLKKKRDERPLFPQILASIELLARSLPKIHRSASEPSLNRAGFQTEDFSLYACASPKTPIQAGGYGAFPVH

Src = Src (Homo sapiens, UniProt P12931); assay: Kinase activity assay, Src
Kdr = Kdr (Homo sapiens, UniProt P35968); assay: Kinase activity assay, Kdr
Kdr, sequence (P35968 20-1356): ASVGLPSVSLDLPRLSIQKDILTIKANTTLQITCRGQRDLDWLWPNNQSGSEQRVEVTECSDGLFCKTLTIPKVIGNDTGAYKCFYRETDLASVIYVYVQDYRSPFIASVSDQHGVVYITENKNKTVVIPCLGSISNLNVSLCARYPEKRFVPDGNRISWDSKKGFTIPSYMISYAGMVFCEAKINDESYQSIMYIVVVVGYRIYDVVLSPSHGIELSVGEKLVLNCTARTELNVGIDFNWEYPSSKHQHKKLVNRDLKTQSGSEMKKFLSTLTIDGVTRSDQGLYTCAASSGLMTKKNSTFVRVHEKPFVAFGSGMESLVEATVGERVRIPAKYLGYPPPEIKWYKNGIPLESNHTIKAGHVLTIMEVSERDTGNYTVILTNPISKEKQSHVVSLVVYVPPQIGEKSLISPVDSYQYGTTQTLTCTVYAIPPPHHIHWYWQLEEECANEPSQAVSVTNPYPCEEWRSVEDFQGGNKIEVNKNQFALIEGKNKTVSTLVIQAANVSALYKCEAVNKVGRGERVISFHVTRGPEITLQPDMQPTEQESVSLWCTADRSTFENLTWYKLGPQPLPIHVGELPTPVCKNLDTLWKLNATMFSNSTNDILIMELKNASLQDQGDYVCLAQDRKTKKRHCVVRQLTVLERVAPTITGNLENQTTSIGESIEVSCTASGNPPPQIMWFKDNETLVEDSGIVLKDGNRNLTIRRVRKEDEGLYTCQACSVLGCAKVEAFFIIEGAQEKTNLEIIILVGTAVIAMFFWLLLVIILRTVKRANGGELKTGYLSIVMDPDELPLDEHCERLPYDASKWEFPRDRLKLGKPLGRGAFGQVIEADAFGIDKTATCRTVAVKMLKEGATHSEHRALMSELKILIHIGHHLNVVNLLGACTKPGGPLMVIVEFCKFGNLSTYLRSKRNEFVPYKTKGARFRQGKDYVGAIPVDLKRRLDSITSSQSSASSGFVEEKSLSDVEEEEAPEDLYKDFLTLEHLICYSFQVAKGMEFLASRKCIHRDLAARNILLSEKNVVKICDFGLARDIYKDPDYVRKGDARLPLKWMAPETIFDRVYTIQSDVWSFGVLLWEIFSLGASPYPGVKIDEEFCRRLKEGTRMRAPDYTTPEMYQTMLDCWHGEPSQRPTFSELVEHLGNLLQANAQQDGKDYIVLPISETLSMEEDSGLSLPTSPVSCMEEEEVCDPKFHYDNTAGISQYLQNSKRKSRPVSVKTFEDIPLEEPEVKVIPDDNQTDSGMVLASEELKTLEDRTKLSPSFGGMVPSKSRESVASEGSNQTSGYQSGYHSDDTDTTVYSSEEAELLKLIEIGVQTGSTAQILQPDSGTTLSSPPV

B-Raf = B-Raf (Homo sapiens, UniProt P15056); assay: Kinase activity assay, B-Raf; type: biochemical; conditions: read-out: activity toward kinase B-Raf, IC50
B-Raf, sequence (P15056 whole entry): as the sequence (P15056 whole entry V600E) above, with E600V counted along it

TEC = target: T1, TEC (Homo sapiens, UniProt P42680); assay: Kinase activity assay, TEC
T1 sequence (P42680 1-631): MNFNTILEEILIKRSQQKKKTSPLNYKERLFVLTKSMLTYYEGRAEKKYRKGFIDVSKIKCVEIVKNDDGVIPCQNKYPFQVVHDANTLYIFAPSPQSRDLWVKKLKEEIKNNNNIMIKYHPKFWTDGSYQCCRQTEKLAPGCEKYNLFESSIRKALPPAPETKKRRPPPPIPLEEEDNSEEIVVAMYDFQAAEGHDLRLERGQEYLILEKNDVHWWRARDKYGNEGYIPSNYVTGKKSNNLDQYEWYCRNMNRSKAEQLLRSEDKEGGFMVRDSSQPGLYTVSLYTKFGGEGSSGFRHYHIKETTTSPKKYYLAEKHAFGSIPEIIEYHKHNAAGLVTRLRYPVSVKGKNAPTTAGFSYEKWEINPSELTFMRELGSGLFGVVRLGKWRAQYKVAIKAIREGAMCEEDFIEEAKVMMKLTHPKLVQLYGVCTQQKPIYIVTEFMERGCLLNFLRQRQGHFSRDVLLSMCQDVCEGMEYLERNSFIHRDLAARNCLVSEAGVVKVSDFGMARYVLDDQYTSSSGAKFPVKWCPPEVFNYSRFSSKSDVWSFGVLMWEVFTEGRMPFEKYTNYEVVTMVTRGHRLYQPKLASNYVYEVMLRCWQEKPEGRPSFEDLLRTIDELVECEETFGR

Fms = Fms (Homo sapiens, UniProt P07333); assay: Kinase activity assay, Fms
Fms, sequence (P07333 20-972): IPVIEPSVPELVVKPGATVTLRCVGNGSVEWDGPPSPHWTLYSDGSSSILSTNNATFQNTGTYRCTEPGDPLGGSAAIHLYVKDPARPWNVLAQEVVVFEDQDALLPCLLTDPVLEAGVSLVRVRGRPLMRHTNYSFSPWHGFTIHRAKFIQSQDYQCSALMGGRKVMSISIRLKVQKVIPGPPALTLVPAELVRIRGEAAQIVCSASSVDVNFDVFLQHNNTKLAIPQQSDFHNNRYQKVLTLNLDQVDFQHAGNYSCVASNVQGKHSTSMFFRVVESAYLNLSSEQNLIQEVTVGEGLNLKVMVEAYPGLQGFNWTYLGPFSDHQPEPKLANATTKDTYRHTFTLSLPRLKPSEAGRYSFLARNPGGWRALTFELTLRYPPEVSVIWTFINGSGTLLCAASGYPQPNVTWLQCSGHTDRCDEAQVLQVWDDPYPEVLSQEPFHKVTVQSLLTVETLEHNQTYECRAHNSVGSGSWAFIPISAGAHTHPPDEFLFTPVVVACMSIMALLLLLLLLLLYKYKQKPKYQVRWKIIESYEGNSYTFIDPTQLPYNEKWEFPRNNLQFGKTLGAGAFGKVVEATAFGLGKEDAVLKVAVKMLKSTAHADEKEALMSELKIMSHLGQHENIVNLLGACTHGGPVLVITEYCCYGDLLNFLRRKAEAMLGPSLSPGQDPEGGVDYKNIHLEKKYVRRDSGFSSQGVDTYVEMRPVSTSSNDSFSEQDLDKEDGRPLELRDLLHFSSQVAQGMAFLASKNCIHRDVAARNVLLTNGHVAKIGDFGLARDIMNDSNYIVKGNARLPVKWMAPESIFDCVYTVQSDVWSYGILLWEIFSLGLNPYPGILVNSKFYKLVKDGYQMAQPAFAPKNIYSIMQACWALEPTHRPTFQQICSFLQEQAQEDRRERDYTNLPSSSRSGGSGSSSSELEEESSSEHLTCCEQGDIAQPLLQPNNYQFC

Measured: IC50

C-Raf, sequence (P04049 whole entry): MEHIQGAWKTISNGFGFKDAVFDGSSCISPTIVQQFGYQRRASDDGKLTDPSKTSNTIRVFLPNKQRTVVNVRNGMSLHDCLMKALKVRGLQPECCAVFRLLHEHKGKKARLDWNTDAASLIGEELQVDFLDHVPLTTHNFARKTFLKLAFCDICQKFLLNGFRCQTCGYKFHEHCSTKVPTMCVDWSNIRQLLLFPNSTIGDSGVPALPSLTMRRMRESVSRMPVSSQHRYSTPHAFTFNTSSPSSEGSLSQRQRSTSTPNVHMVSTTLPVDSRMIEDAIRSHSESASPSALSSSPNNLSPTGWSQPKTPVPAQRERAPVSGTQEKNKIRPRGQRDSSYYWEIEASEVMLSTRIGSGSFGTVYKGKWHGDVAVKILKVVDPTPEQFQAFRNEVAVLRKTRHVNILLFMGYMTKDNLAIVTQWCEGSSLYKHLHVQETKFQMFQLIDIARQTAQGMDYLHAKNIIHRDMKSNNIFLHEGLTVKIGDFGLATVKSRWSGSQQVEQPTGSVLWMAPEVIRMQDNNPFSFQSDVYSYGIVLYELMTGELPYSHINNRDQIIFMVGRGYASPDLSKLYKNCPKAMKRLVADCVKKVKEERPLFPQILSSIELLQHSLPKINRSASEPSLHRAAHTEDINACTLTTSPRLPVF
Kit, sequence (P10721 26-976): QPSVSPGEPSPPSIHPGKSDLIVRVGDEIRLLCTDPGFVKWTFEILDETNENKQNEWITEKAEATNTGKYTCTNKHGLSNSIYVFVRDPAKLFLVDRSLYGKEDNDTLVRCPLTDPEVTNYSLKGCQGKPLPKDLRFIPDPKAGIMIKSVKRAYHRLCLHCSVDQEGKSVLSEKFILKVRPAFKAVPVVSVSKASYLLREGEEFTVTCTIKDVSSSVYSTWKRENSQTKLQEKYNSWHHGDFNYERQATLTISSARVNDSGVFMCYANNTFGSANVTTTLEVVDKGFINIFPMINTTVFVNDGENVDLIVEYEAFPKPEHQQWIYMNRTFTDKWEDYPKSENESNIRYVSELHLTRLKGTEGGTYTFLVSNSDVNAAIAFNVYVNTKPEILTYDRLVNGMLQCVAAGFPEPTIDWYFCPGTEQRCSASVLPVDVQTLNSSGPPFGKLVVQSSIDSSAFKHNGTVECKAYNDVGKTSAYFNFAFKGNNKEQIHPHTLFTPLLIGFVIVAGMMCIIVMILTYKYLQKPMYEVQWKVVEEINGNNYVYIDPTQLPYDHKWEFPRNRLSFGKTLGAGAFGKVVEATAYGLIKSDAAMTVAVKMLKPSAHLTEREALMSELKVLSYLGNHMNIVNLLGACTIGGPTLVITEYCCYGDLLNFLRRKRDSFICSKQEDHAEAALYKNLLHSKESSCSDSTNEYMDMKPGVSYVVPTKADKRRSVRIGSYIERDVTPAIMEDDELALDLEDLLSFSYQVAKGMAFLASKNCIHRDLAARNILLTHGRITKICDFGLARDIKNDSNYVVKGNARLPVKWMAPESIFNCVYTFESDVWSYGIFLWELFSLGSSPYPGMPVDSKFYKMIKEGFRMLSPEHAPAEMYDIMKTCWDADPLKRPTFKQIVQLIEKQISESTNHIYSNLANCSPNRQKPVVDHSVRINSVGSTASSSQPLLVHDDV

COc1ccnc2[nH]cc(C(=O)c3c(F)ccc(NS(=O)(=O)c4ccc(F)cc4)c3F)c12 [P-2027, N-[2,4-Difluoro-3-(4-methoxy-1H-pyrrolo[2,3-b]pyridine-3-carbonyl)-phenyl]-4-fluoro-benzenesulfonamide]
not listed: Fms
≤ 10 µM: all other assays above

O=C(c1cc(NS(=O)(=O)c2cccc(Cl)c2)ccc1F)c1c[nH]c2ncc(Cl)cc12 [P-2111, 3-Chloro-N-[3-(5-chloro-1H-pyrrolo[2,3-b]pyridine-3-carbonyl)-4-fluoro-phenyl]-benzenesulfonamide]
≤ 10 µM: Kit | B-Raf V600E | Fms | Kdr | TEC

O=C(c1cc(NS(=O)(=O)c2cccc(Cl)c2)ccc1F)c1c[nH]c2ncccc12 [P-2118, 3-Chloro-N-[4-fluoro-3-(1H-pyrrolo[2,3-b]pyridine-3-carbonyl)-phenyl]-benzenesulfonamide]
≤ 10 µM: Kit | Fms | Kdr | TEC

Cn1cc(-c2cnc3[nH]cc(C(=O)c4cccc(NS(=O)(=O)c5ccc(OC(F)(F)F)cc5)c4)c3c2)cn1 [P-2132, N-{3-[5-(1-Methyl-1H-pyrazol-4-yl)-1H-pyrrolo[2,3-b]pyridine-3-carbonyl]-phenyl}-4-trifluoromethoxy-benzenesulfonamide]
≤ 10 µM: Kit | B-Raf V600E | Fms | Kdr | TEC

Cn1cc(-c2cnc3[nH]cc(C(=O)c4cccc(NS(=O)(=O)c5cccc(OC(F)(F)F)c5)c4)c3c2)cn1 [P-2133, N-{3-[5-(1-Methyl-1H-pyrazol-4-yl)-1H-pyrrolo[2,3-b]pyridine-3-carbonyl]-phenyl}-3-trifluoromethoxy-benzenesulfonamide]
≤ 10 µM: Kit | B-Raf V600E | Fms | Kdr | TEC

Cn1cc(-c2cnc3[nH]cc(C(=O)c4cccc(NS(=O)(=O)c5ccc(C(F)(F)F)cc5)c4)c3c2)cn1 [P-2135, N-{3-[5-(1-Methyl-1H-pyrazol-4-yl)-1H-pyrrolo[2,3-b]pyridine-3-carbonyl]-phenyl}-4-trifluoromethyl-benzenesulfonamide]
≤ 10 µM: Kit | B-Raf V600E | Fms | Kdr | TEC

CCCS(=O)(=O)Nc1ccc(F)c(C(=O)c2c[nH]c3ncc(-c4ccc(O)cc4)cc23)c1F [P-2198, Propane-1-sulfonic acid {2,4-difluoro-3-[5-(4-hydroxy-phenyl)-1H-pyrrolo[2,3-b]pyridine-3-carbonyl]-phenyl}-amide]
≤ 10 µM: B-Raf V600E | Fms | B-Raf | TEC

CCCS(=O)(=O)Nc1ccc(F)c(C(=O)c2c[nH]c3ncc(C(=O)OCC)cc23)c1F [P-2207, 3-[2,6-Difluoro-3-(propane-1-sulfonylamino)-benzoyl]-1H-pyrrolo[2,3-b]pyridine-5-carboxylic acid ethyl ester]
not listed: C-Raf | Src
≤ 10 µM: all other assays above

CCCS(=O)(=O)Nc1ccc(F)c(C(=O)c2c[nH]c3ncc(-c4ccccc4Cl)cc23)c1F [P-2212, Propane-1-sulfonic acid {3-[5-(2-chloro-phenyl)-1H-pyrrolo[2,3-b]pyridine-3-carbonyl]-2,4-difluoro-phenyl}-amide]
≤ 10 µM: B-Raf V600E | Fms | Kdr | B-Raf | TEC

COc1ccnc2[nH]cc(C(=O)c3c(F)ccc(NS(=O)(=O)CC(C)C)c3F)c12 [P-2306, 2-Methyl-propane-1-sulfonic acid [2,4-difluoro-3-(4-methoxy-1H-pyrrolo[2,3-b]pyridine-3-carbonyl)-phenyl]-amide]
not listed: Kdr | Fms
≤ 10 µM: all other assays above

O=C(c1c(F)ccc(NS(=O)(=O)C2CCCC2)c1F)c1c[nH]c2ncc(Cl)cc12 [P-2358, Cyclopentanesulfonic acid [3-(5-chloro-1H-pyrrolo[2,3-b]pyridine-3-carbonyl)-2,4-difluoro-phenyl]-amide]
not listed: Fms
≤ 10 µM: all other assays above

N#Cc1cnc2[nH]cc(C(=O)c3c(F)ccc(NS(=O)(=O)C4CCCC4)c3F)c2c1 [P-2359, Cyclopentanesulfonic acid [3-(5-cyano-1H-pyrrolo[2,3-b]pyridine-3-carbonyl)-2,4-difluoro-phenyl]-amide]
not listed: Fms
≤ 10 µM: all other assays above

COc1ccnc2[nH]cc(C(=O)c3c(F)ccc(NS(=O)(=O)C4CCCCC4)c3F)c12 [P-2361, Cyclohexanesulfonic acid [2,4-difluoro-3-(4-methoxy-1H-pyrrolo[2,3-b]pyridine-3-carbonyl)-phenyl]-amide]
not listed: Kdr | Fms
≤ 10 µM: all other assays above

O=C(c1cc(NS(=O)(=O)C2CCCCC2)ccc1F)c1c[nH]c2ncccc12 [P-2441, Cyclohexanesulfonic acid [4-fluoro-3-(1H-pyrrolo[2,3-b]pyridine-3-carbonyl)-phenyl]-amide]
≤ 10 µM: Kit | Fms | TEC

O=C(c1cc(NS(=O)(=O)C2CCCC2)ccc1F)c1c[nH]c2ncccc12 [P-2442, Cyclopentanesulfonic acid [4-fluoro-3-(1H-pyrrolo[2,3-b]pyridine-3-carbonyl)-phenyl]-amide]
≤ 10 µM: B-Raf V600E | Fms | Kdr | TEC
